Test results taken from ChEMBL document CHEMBL1151585, “Aryl phosphate derivates of AZT inhibit HIV replication in cells where the nucleoside is poorly active” (Bioorg Med Chem Lett, 1992).

Tests used:
JM1 = experiment: Effective dose of compound that decreases antigen production in HIV-1 infected JM cells to 50% of control; assay type: functional; conditions: Homo sapiens, read-out: ED50 (the source's name)
[1] = Toxic dose of compound which causes 50% cytotoxicity towards HIV-1 uninfected JM cells; assay type: toxicity, cell-based, JM1; conditions: human, read-out: TD50 (the source's name)

SMILES | EC50 (JM1) | CC50 [1]
COC(=O)C(C)NP(=O)(OCC1OC(n2cc(C)c(=O)[nH]c2=O)CC1N=[N+]=[N-])Oc1ccc([N+](=O)[O-])cc1 (stereo not drawn) | 40000 nM | 300 µM
COC(=O)C(CC(C)C)NP(=O)(OCC1OC(n2cc(C)c(=O)[nH]c2=O)CC1N=[N+]=[N-])Oc1ccccc1 (stereo not drawn) | 8000 nM | 80 µM
COC(=O)[C@H](C)NP(=O)(OC[C@H]1O[C@@H](n2cc(C)c(=O)[nH]c2=O)C[C@@H]1N=[N+]=[N-])Oc1ccccc1 (stereo partly drawn) | 800 nM | 500 µM
CCc1ccc(OP(=O)(NC(C)C(=O)OC)OCC2OC(n3cc(C)c(=O)[nH]c3=O)CC2N=[N+]=[N-])cc1 (stereo not drawn) | 400 nM | 40 µM
COC(=O)C(C)NP(=O)(OCC1OC(n2cc(C)c(=O)[nH]c2=O)CC1N=[N+]=[N-])Oc1ccc(F)cc1 (stereo not drawn) | 320 nM | > 200 µM
COC(=O)C(C)NP(=O)(OCC1OC(n2cc(C)c(=O)[nH]c2=O)CC1N=[N+]=[N-])Oc1ccc(OC)cc1 (stereo not drawn) | 800 nM | 100 µM
COC(=O)C(Cc1ccccc1)NP(=O)(OCC1OC(n2cc(C)c(=O)[nH]c2=O)CC1N=[N+]=[N-])Oc1ccccc1 (stereo not drawn) | 1600 nM | 100 µM
COC(=O)CNP(=O)(OCC1OC(n2cc(C)c(=O)[nH]c2=O)CC1N=[N+]=[N-])Oc1ccccc1 (stereo not drawn) | 100000 nM | 1000 µM
Cc1cn([C@H]2C[C@H](N=[N+]=[N-])[C@@H](CO)O2)c(=O)[nH]c1=O [ZIDOVUDINE] | 100000 nM | > 1000 µM
